In ChEMBL document CHEMBL3132779, “Design, synthesis and biological evaluation of imidazo[1,5-a]pyridinePBD conjugates as potential DNA-directed alkylating agents” (Medchemcomm, 2013):
Activity calls are given as the source filed them. No cut-off for these calls is given here.

Legend:
DNA = experiment: Binding affinity to calf thymus DNA assessed as change in melting temperature at 1:5 drug/DNA ratio at 37 degC after 18 hrs by spectrophotometry; type: nucleic-acid assay; conditions: Bos taurus
MCF7 [1] = experiment: Cell cycle arrest in human MCF7 cells assessed as accumulation at S phase at 4 uM after 24 hrs by propidium iodide staining-based flow cytometric analysis (reference value: 12.23%); type: functional
MCF7 [2] = experiment: Cytotoxicity against human MCF7 cells assessed as reduction cell viability after 24 hrs by MTT assay; type: functional, cell-based; conditions: MCF7, 24 h
MCF7 [3] = experiment: Cell cycle arrest in human MCF7 cells assessed as accumulation at G1 phase at 2 uM after 24 hrs by propidium iodide staining-based flow cytometric analysis (reference value: 56.48%); type: functional
MCF7 [4] = experiment: Cell cycle arrest in human MCF7 cells assessed as accumulation at G2/M phase at 2 uM after 24 hrs by propidium iodide staining-based flow cytometric analysis (reference value: 27.93%); type: functional
MCF7 [5] = experiment: Cell cycle arrest in human MCF7 cells assessed as accumulation at G0 phase at 2 uM after 24 hrs by propidium iodide staining-based flow cytometric analysis (reference value: 3.36%); type: functional
MCF7 [6] = experiment: Cell cycle arrest in human MCF7 cells assessed as accumulation at G2/M phase at 4 uM after 24 hrs by propidium iodide staining-based flow cytometric analysis (reference value: 27.93%); type: functional
MCF7 [7] = experiment: Cell cycle arrest in human MCF7 cells assessed as accumulation at S phase at 2 uM after 24 hrs by propidium iodide staining-based flow cytometric analysis (reference value: 12.23%); type: functional
MCF7 [8] = experiment: Cell cycle arrest in human MCF7 cells assessed as accumulation at G1 phase at 4 uM after 24 hrs by propidium iodide staining-based flow cytometric analysis (reference value: 56.48%); type: functional
MCF7 [9] = experiment: Cell cycle arrest in human MCF7 cells assessed as accumulation at G0 phase at 4 uM after 24 hrs by propidium iodide staining-based flow cytometric analysis (reference value: 3.36%); type: functional
MCF7 [10] = experiment: Induction of apoptosis in human MCF7 cells assessed as decrease in PARP protein expression at 4 uM after 24 hrs by Western blot analysis; type: functional, cell-based
MCF7 [11] = experiment: Induction of apoptosis in human MCF7 cells assessed as increase in P53 tumor suppressor protein expression at 4 uM after 24 hrs by Western blot analysis; type: functional, cell-based
MCF7 [12] = experiment: Induction of apoptosis in human MCF7 cells assessed as increase in active caspase 9 at 4 uM after 24 hrs by Western blot analysis; type: functional, cell-based
MCF7 [13] = experiment: Induction of apoptosis in human MCF7 cells assessed as increase in P53 tumor suppressor protein expression at 4 uM after 24 hrs by ELISA; type: functional, cell-based
MCF7 [14] = experiment: Induction of apoptosis in human MCF7 cells assessed as increase in P21 tumor suppressor protein expression at 4 uM after 24 hrs by Western blot analysis; type: functional, cell-based
MCF7 [15] = experiment: Induction of apoptosis in human MCF7 cells assessed as decrease in cyclin D1 expression at 4 uM after 24 hrs by Western blot analysis; type: functional, cell-based
MCF7 [16] = experiment: Induction of DNA in human MCF7 cells assessed as increase in phosphorylated gamma-H2AX foci formation measured by immunoflourosence microscopy relative to control; type: functional

Structure (SMILES) | ΔTm (DNA) [°C] | Activity (MCF7 [1]) [%] | IC50 (MCF7 [2]) [µM] | Activity (MCF7 [3]) [%] | Activity (MCF7 [4]) [%] | Activity (MCF7 [5]) [%] | Activity (MCF7 [6]) [%] | Activity (MCF7 [7]) [%] | Activity (MCF7 [8]) [%] | Activity (MCF7 [9]) [%] | inhibition (MCF7 [10]) | Activity (MCF7 [11]) | Activity (MCF7 [12]) | Activity (MCF7 [13]) | Activity (MCF7 [14]) | inhibition (MCF7 [15]) | Activity (MCF7 [16]) [%]
O=C(c1nc(-c2ccc(C(F)(F)F)cc2)n2ccccc12)N1CCNCC1 | 2.5 |  |  |  |  |  |  |  |  |  |  |  |  |  |  |  | 
COc1ccc(-c2nc(C(=O)N3CCN(CCCOc4cc5c(cc4OC)C(=O)N4CCC[C@H]4C=N5)CC3)c3ccccn23)cc1 | 8.8 | 13.81 | 6 | 45.35 | 31.44 | 3.56 | 13.27 | 19.65 | 66.92 | 6 |  |  |  |  |  |  | 
COc1cc2c(cc1OCCCCN1CCN(C(=O)c3nc(-c4ccc(C(F)(F)F)cc4)n4ccccc34)CC1)N=C[C@@H]1CCCN1C2=O | 10 | 8.78 | 3.26 | 42.94 | 41.29 | 3.64 | 18.71 | 12.14 | 57.32 | 15.19 | Active | Active | Active | Active | Active | Active | 
COc1cc2c(cc1OCCCCN1CCN(C(=O)c3nc(-c4ccccc4)n4ccccc34)CC1)N=C[C@@H]1CCCN1C2=O | 8.9 | 9.85 | 7.18 | 48.87 | 31.3 | 2.8 | 20.95 | 17.03 | 63.74 | 5.47 |  |  |  |  |  |  | 
COc1cc2c(cc1OCCCCCCN1CCN(C(=O)c3nc(-c4ccc(C(F)(F)F)cc4)n4ccccc34)CC1)N=C[C@@H]1CCCN1C2=O | 8.7 | 9.94 | 4.28 | 52.92 | 34.09 | 3.66 | 30.79 | 9.33 | 52.13 | 7.14 |  |  |  |  |  |  | 
O=C(O)c1nc(-c2ccc(C(F)(F)F)cc2)n2ccccc12 | 0.3 |  |  |  |  |  |  |  |  |  |  |  |  |  |  |  | 
COc1cc2c(cc1OCCCN1CCN(C(=O)c3nc(-c4ccccc4)n4ccccc34)CC1)N=C[C@@H]1CCCN1C2=O | 8.9 | 10.19 | 7.21 | 55.54 | 28.35 | 4.26 | 30.14 | 11.86 | 54.44 | 5.23 |  |  |  |  |  |  | 
COc1cc2c(cc1OCCCN1CCN(C(=O)c3nc(-c4ccc(C(F)(F)F)cc4)n4ccccc34)CC1)N=C[C@@H]1CCCN1C2=O | 8.8 | 9.7 | 5.74 | 52.63 | 32.52 | 4.52 | 14.71 | 10.34 | 69.36 | 6.23 |  |  |  |  |  |  | 
COc1cc2c(cc1OCCCCCN1CCN(C(=O)c3nc(-c4ccc(C(F)(F)F)cc4)n4ccccc34)CC1)N=C[C@@H]1CCCN1C2=O | 10.2 | 6.9 | 3.16 | 44.41 | 41.41 | 5.7 | 25.32 | 8.48 | 49.66 | 17.13 | Active | Active | Active | Active | Active | Active | 80
COc1cc2c(cc1O)N=C[C@@H]1CCCN1C2=O | 0.7 | 13.76 | 5 | 53.76 | 27.28 | 2.83 | 26.83 | 16.13 | 54.08 | 5.33 |  | Active |  | Active | Active |  | 
COc1ccc(-c2nc(C(=O)N3CCN(CCCCOc4cc5c(cc4OC)C(=O)N4CCC[C@H]4C=N5)CC3)c3ccccn23)cc1 | 9.9 | 14.04 | 4.17 | 51.08 | 34.52 | 4.51 | 22.9 | 9.89 | 59.03 | 7.01 |  |  |  |  |  |  | 
COc1ccc(-c2nc(C(=O)N3CCN(CCCCCCOc4cc5c(cc4OC)C(=O)N4CCC[C@H]4C=N5)CC3)c3ccccn23)cc1 | 8.9 | 8.44 | 3.68 | 41.06 | 40.53 | 5.39 | 23.56 | 13.2 | 54.67 | 13.33 |  |  |  |  |  |  | 
COc1cc2c(cc1OCCCCCCN1CCN(C(=O)c3nc(-c4ccccc4)n4ccccc34)CC1)N=C[C@@H]1CCCN1C2=O | 8 | 16.52 | 3.74 | 43.15 | 39.25 | 4.08 | 20.15 | 10.52 | 55.54 | 7.79 |  |  |  |  |  |  | 
COc1cc2c(cc1OCCCCCN1CCN(C(=O)c3nc(-c4ccccc4)n4ccccc34)CC1)N=C[C@@H]1CCCN1C2=O | 9 | 10 | 4.16 | 49.16 | 36.5 | 4.49 | 30.74 | 9.84 | 51.6 | 7.6 |  |  |  |  |  |  | 
COc1ccc(-c2nc(C(=O)N3CCN(CCCCCOc4cc5c(cc4OC)C(=O)N4CCC[C@H]4C=N5)CC3)c3ccccn23)cc1 | 9.9 | 10.42 | 5.67 | 52.76 | 31.61 | 5.57 | 30.3 | 10.06 | 53.22 | 6.07 |  |  |  |  |  |  | 
